Measurements: PMC6100082, “Pyridine-Ureas as Potential Anticancer Agents: Synthesis and In Vitro Biological Evaluation” (Molecules : A Journal of Synthetic Chemistry and Natural …, 2018)
Read-outs that look alike come from different tables or passages of the source.

Experiments:
Format in all cases: cell-based, human
OVCAR-5 = test: NCI one-dose SRB assay (Ovarian Cancer); details: for inhibition at 10 µM: Homo sapiens, OVCAR-5, 10 μM, read-out: Percentage growth inhibition (GI%); for Growth Percent: OVCAR-5, 1.00E-5 Molar
Description: (§1) The structures of all the newly prepared pyridine-ureas 8a–n were submitted to the National Cancer Institute (NCI) Developmental Therapeutic Program. Eight compounds 8b, 8d, 8e, 8i, 8j and 8l–n were selected to be examined for their in vitro growth inhibitory activity. The anticancer assays were carried out according to the protocol of the Drug Evaluation Branch, NCI, Bethesda. The selected pyridine-ureas were tested at one dose primary anticancer assay against a panel of approximately 58 cancer lines (concentration 10^−5 M). The tested human cancer cell lines emerged from nine different cancer subtypes: leukemia, colon, melanoma, ovarian, lung, CNS, renal, breast and prostate cancers. The sulforhodamine B (SRB) protein assay was adopted to estimate the cell viability and growth. The results were reported as mean-graph of the percentage growth of the treated cells, and presented as percentage growth inhibition (GI%) caused by the test compounds (Table 2).
(§2) The anticancer assays were performed in accordance with the protocol of the Drug Evaluation Branch, NCI, Bethesda. A 48 h drug exposure protocol was used and sulforhodamine B (SRB) protein assay was applied to estimate the cell viability and growth, as reported earlier.

IGROV1 = test: NCI one-dose SRB assay (Ovarian Cancer); details: for inhibition at 10 µM: Homo sapiens, IGROV-1, IGROV1, 10 μM, read-out: Percentage growth inhibition (GI%); for Growth Percent: IGROV1, 1.00E-5 Molar
Description: as §1, §2

SK-OV-3 = test: NCI one-dose SRB assay (Ovarian Cancer); details: for inhibition at 10 µM: Homo sapiens, SK-OV-3, 10 μM, read-out: Percentage growth inhibition (GI%); for Growth Percent: SK-OV-3, 1.00E-5 Molar
Description: as §1, §2

OVCAR-8 = test: NCI one-dose SRB assay (Ovarian Cancer); details: for inhibition at 10 µM: Homo sapiens, OVCAR-8, 10 μM, read-out: Percentage growth inhibition (GI%); for Growth Percent: OVCAR-8, 1.00E-5 Molar
Description: as §1, §2

OVCAR-4 = test: NCI one-dose SRB assay (Ovarian Cancer); details: for inhibition at 10 µM: Homo sapiens, OVCAR-4, 10 μM, read-out: Percentage growth inhibition (GI%); for Growth Percent: OVCAR-4, 1.00E-5 Molar
Description: as §1, §2

OVCAR-3 = test: NCI one-dose SRB assay (Ovarian Cancer); details: for inhibition at 10 µM: Homo sapiens, OVCAR-3, 10 μM, read-out: Percentage growth inhibition (GI%); for Growth Percent: OVCAR-3, 1.00E-5 Molar
Description: as §1, §2

NCI/ADR-RES = test: NCI one-dose SRB assay (Ovarian Cancer); details: for Growth Percent: 1.00E-5 Molar; for inhibition at 10 µM: Homo sapiens, read-out: Percentage growth inhibition (GI%)
Description: as §1, §2

[1] = system: breast cancer MCF-7 cell line; test: In vitro anti-proliferative activity, MTT assay; details: Homo sapiens, MCF-7, MTT
Description: The in vitro anti-proliferative activity of the newly prepared pyridine-ureas 8a–n was examined against breast cancer MCF-7 cell line. The assay was carried out, as triplicates, utilizing the 3-(4,5-dimethylthiazol-2-yl)-2,5-diphenyltetrazolium bromide (MTT) colorimetric assay as described by T. Mosmann. Doxorubicin and Sorafenib were included in this assay as a reference drug.
MCF-7 (human breast cancer cell line) and WI-38 (human lung fibroblast cell line), were obtained from American Type Culture Collection (Manassas, VA, USA). The cells were propagated in DMEM and supplemented with 10% heat-inactivated FBS (Hyclone), 10 μg/mL of insulin (Manufacturer, Sigma, St. Louis, MO, USA), and 1% penicillin-streptomycin. MTT assay was utilized to examine the in vitro anti-proliferative activity of the newly prepared ureas following the reported procedures. […] The data presented are the mean of at least three separate experiments.

BT-549 = test: NCI one-dose SRB assay (Breast Cancer); details: for Growth Percent: BT-549, 1.00E-5 Molar; for inhibition at 10 µM: Homo sapiens, BT-549, 10 μM, read-out: Percentage growth inhibition (GI%)
Description: as §1, §2

T-47D = test: NCI one-dose SRB assay (Breast Cancer); details: for Growth Percent: 1.00E-5 Molar; for inhibition at 10 µM: Homo sapiens, T47D, read-out: Percentage growth inhibition (GI%)
Description: as §1, §2

HS 578T = test: NCI one-dose SRB assay (Breast Cancer); details: for Growth Percent: 1.00E-5 Molar; for inhibition at 10 µM: Homo sapiens, read-out: Percentage growth inhibition (GI%)
Description: as §1, §2

MDA-MB-231 = test: NCI one-dose SRB assay (Breast Cancer); details: for inhibition at 10 µM: Homo sapiens, MDA-MB-231, 10 μM, read-out: Percentage growth inhibition (GI%); for Growth Percent: MDA-MB-231/ATCC, 1.00E-5 Molar
Description: as §1, §2

MCF7 = test: NCI one-dose SRB assay (Breast Cancer); details: for inhibition at 10 µM: Homo sapiens, MCF7, 10 μM, read-out: Percentage growth inhibition (GI%); for Growth Percent: MCF7, 1.00E-5 Molar
Description: as §1, §2

MDA-MB-468 = test: NCI one-dose SRB assay (Breast Cancer); details: for inhibition at 10 µM: Homo sapiens, MDA-MB-468, 10 μM, read-out: Percentage growth inhibition (GI%); for Growth Percent: MDA-MB-468, 1.00E-5 Molar
Description: as §1, §2

UACC-62 = test: NCI one-dose SRB assay (Melanoma); details: for inhibition at 10 µM: Homo sapiens, UACC-62, 10 μM, read-out: Percentage growth inhibition (GI%); for Growth Percent: UACC-62, 1.00E-5 Molar
Description: as §1, §2

SK-MEL-5 = test: NCI one-dose SRB assay (Melanoma); details: for inhibition at 10 µM: Homo sapiens, SK-MEL-5, 10 μM, read-out: Percentage growth inhibition (GI%); for Growth Percent: SK-MEL-5, 1.00E-5 Molar
Description: as §1, §2

M14 = test: NCI one-dose SRB assay (Melanoma); details: for inhibition at 10 µM: Homo sapiens, M14, 10 μM, read-out: Percentage growth inhibition (GI%); for Growth Percent: M14, 1.00E-5 Molar
Description: as §1, §2

SK-MEL-28 = test: NCI one-dose SRB assay (Melanoma); details: for inhibition at 10 µM: Homo sapiens, SK-MEL-28, 10 μM, read-out: Percentage growth inhibition (GI%); for Growth Percent: SK-MEL-28, 1.00E-5 Molar
Description: as §1, §2

SK-MEL-2 = test: NCI one-dose SRB assay (Melanoma); details: for inhibition at 10 µM: Homo sapiens, SK-MEL-2, 10 μM, read-out: Percentage growth inhibition (GI%); for Growth Percent: SK-MEL-2, 1.00E-5 Molar
Description: as §1, §2

MALME-3M = test: NCI one-dose SRB assay (Melanoma); details: for Growth Percent: 1.00E-5 Molar; for inhibition at 10 µM: Homo sapiens, read-out: Percentage growth inhibition (GI%)
Description: as §1, §2

MDA-MB-435 = test: NCI one-dose SRB assay (Melanoma); details: for inhibition at 10 µM: Homo sapiens, MDA-MB-435, 10 μM, read-out: Percentage growth inhibition (GI%); for Growth Percent: MDA-MB-435, 1.00E-5 Molar
Description: as §1, §2

LOX IMVI = test: NCI one-dose SRB assay (Melanoma); details: for Growth Percent: 1.00E-5 Molar; for inhibition at 10 µM: Homo sapiens, read-out: Percentage growth inhibition (GI%)
Description: as §1, §2

UACC-257 = test: NCI one-dose SRB assay (Melanoma); details: for inhibition at 10 µM: Homo sapiens, UACC-257, 10 μM, read-out: Percentage growth inhibition (GI%); for Growth Percent: UACC-257, 1.00E-5 Molar
Description: as §1, §2

[2] = MCF7, 48 h, 48 h of incubation, read-out: IC50 48 h
[3] = MCF7, 72 h, 72 h of incubation, read-out: IC50 72 h

For COc1ccc(-c2ccc(NC(=O)Nc3cccc(C(F)(F)F)c3)c(C)n2)cc1OC [Compound 8i, 1-(6-(3,4-Dimethoxyphenyl)-2-methylpyridin-3-yl)-3-(3-(trifluoromethyl)phenyl) Urea], the inhibition at 10 µM (OVCAR-5) was under 10%, the “Growth Percent” value (OVCAR-5) was 94.03% and the inhibition at 10 µM (IGROV1) was under 10%. The “Growth Percent” value (IGROV1) was 91.46%, the inhibition at 10 µM (SK-OV-3) was under 10% and the “Growth Percent” value (SK-OV-3) was 101.37%. For the same compound, the inhibition at 10 µM (OVCAR-8) was 19%, the “Growth Percent” value (OVCAR-8) was 81.32% and the inhibition at 10 µM (OVCAR-4) was 41%. For the same compound, the “Growth Percent” value (OVCAR-4) was 59.07%, the inhibition at 10 µM (OVCAR-3) was 31% and the “Growth Percent” value (OVCAR-3) was 69.16%. For the same compound, the “Growth Percent” value (NCI/ADR-RES) was 66.87%, the inhibition at 10 µM (NCI/ADR-RES) was 34% and the IC50 [1, 2] was 6.19 ± 0.54 µM. The IC50 [1, 3] was 5.8 ± 0.34 µM, the “Growth Percent” value (BT-549) was 71.52% and the inhibition at 10 µM (BT-549) was 29%. The “Growth Percent” value (T-47D) was 53.57%, the inhibition at 10 µM (T-47D) was 47% and the “Growth Percent” value (HS 578T) was 74.54%. The inhibition at 10 µM (HS 578T) was 26%, the inhibition at 10 µM (MDA-MB-231) was 31% and the “Growth Percent” value (MDA-MB-231) was 69.50%. For the same compound, the inhibition at 10 µM (MCF7) was 38%, the “Growth Percent” value (MCF7) was 62.46% and the inhibition at 10 µM (MDA-MB-468) was 51%. For the same compound, the “Growth Percent” value (MDA-MB-468) was 49.56%, the inhibition at 10 µM (UACC-62) was 19% and the “Growth Percent” value (UACC-62) was 81.66%. The inhibition at 10 µM (SK-MEL-5) was 42%, the “Growth Percent” value (SK-MEL-5) was 58.49% and the inhibition at 10 µM (M14) was 69%. The “Growth Percent” value (M14) was 31.21%, the inhibition at 10 µM (SK-MEL-28) was 25% and the “Growth Percent” value (SK-MEL-28) was 75.52%. The inhibition at 10 µM (SK-MEL-2) was 27%, the “Growth Percent” value (SK-MEL-2) was 73.78% and the “Growth Percent” value (MALME-3M) was 95.26%. For the same compound, the inhibition at 10 µM (MALME-3M) was under 10%, the inhibition at 10 µM (MDA-MB-435) was 27% and the “Growth Percent” value (MDA-MB-435) was 73.17%. The “Growth Percent” value (LOX IMVI) was 70.96%, the inhibition at 10 µM (LOX IMVI) was 30% and the inhibition at 10 µM (UACC-257) was 19%. The “Growth Percent” value (UACC-257) was 81.62%.
COc1ccc(-c2ccc(NC(=O)Nc3ccc(Cl)c(C(F)(F)F)c3)c(C)n2)cc1 [Compound 8e, 1-(4-Chloro-3-(trifluoromethyl)phenyl)-3-(6-(4-methoxyphenyl)-2-methylpyridin-3-yl)urea] was tested, and the inhibition at 10 µM (OVCAR-5) was 11%, the “Growth Percent” value (OVCAR-5) was 89.11% and the inhibition at 10 µM (IGROV1) was 48%. For the same compound, the “Growth Percent” value (IGROV1) was 52.86%, the inhibition at 10 µM (SK-OV-3) was 32% and the “Growth Percent” value (SK-OV-3) was 68.11%. For the same compound, the inhibition at 10 µM (OVCAR-8) was 43%, the “Growth Percent” value (OVCAR-8) was 57.40% and the inhibition at 10 µM (OVCAR-4) was 55%. For the same compound, the “Growth Percent” value (OVCAR-4) was 45.11%, the inhibition at 10 µM (OVCAR-3) was 73% and the “Growth Percent” value (OVCAR-3) was 27.65%. The “Growth Percent” value (NCI/ADR-RES) was 49.78%, the inhibition at 10 µM (NCI/ADR-RES) was 51% and the IC50 [1, 2] was 0.22 ± 0.02 µM. The IC50 [1, 3] was 0.11 ± 0.1 µM, the “Growth Percent” value (BT-549) was 66.19% and the inhibition at 10 µM (BT-549) was 34%. The “Growth Percent” value (T-47D) was 21.49%, the inhibition at 10 µM (T-47D) was 79% and the “Growth Percent” value (HS 578T) was 76.98%. The inhibition at 10 µM (HS 578T) was 24%, the inhibition at 10 µM (MDA-MB-231) was 15% and the “Growth Percent” value (MDA-MB-231) was 85.04%. The inhibition at 10 µM (MCF7) was 64%, the “Growth Percent” value (MCF7) was 36.68% and the inhibition at 10 µM (MDA-MB-468) was 62%. The “Growth Percent” value (MDA-MB-468) was 38.52%, the inhibition at 10 µM (UACC-62) was 35% and the “Growth Percent” value (UACC-62) was 65.57%. For the same compound, the inhibition at 10 µM (SK-MEL-5) was 45%, the “Growth Percent” value (SK-MEL-5) was 55.66% and the inhibition at 10 µM (M14) was 69%. The “Growth Percent” value (M14) was 31.87%, the inhibition at 10 µM (SK-MEL-28) was 29% and the “Growth Percent” value (SK-MEL-28) was 71.43%. For the same compound, the inhibition at 10 µM (SK-MEL-2) was 38%, the “Growth Percent” value (SK-MEL-2) was 62.13% and the “Growth Percent” value (MALME-3M) was 82.56%. The inhibition at 10 µM (MALME-3M) was 18%, the inhibition at 10 µM (MDA-MB-435) was 29% and the “Growth Percent” value (MDA-MB-435) was 71.95%. For the same compound, the “Growth Percent” value (LOX IMVI) was 64.51%, the inhibition at 10 µM (LOX IMVI) was 36% and the inhibition at 10 µM (UACC-257) was 43%. The “Growth Percent” value (UACC-257) was 57.07%.
